Several values for one entry are separate records, joined by “and”; a condition that tells them apart may be missing. Equal values may be shown once.
Assays:
Format in all cases: in vivo
[1] = Influence of theophyllamine on the blood glucose level after insulin-induced hypoglycaemia in healthy subjects
Protocol: Under carefully controlled conditions hypoglycaemia was induced in each of eleven healty subjects by injection of Actrapid® Human insulin, 0.15 IU/kg (available from Novo Nordisk A/S, Bagsvaerd, Denmark). The blood glucose level was monitored from just before the injection of the insulin took place until 2 hours after. The basal level, the nadir level and the level after 1 hour and 2 hours for each subject are given in Table 1 under the entry "placebo".
On a different day a study similar to the one described above was performed on the same subjects, the only difference being that in this second study theophyllamine was administered concomitantly with the insulin. The theophyllamine was administered in the form of a bolus injection of 220 mg per person given at the same time as the insulin followed by a constant rate infusion of theophyllamine of 2,5 mg/kg body weight/hour. The corresponding glucose levels are given in Table 1 under the entry "theophyllamine".

[2] = Influence of theophyllamine on the blood glucose level after insulin-induced hypoglycaemia in diabetic patients
Protocol: Under carefully controlled conditions hypoglycaemia was induced in each of nine diabetic patients by injection of Actrapid® Human insulin, 0.15 IU/kg (available from Novo Nordisk A/S, Bagsvaerd, Denmark). The blood glucose level was monitored from just before the injection of the insulin took place until 2 hours after. The basal level, the nadir level and the level after 1 hour and 2 hours for each subject are given in Table 2 under the entry "placebo".
On a different day a study similar to the one described above was performed on the same patients, the only difference being that in this second study theophyllamine was administered concomitantly with the insulin. The theophyllamine was administered in the form of a bolus injection of 220 mg per person followed by a constant rate infusion of theophyllamine of 2,5 mg/kg body weight/hour. The corresponding glucose levels are given in Table 2 under the entry "theophyllamine".

[3] = Awareness of early hypoglycaemia warning symptoms in diabetic patients taking theophyllamine regularly; conditions: some diabetic patients who have taken theophyllamine regularly as a preventive measure
Source text: Usually hypoglycaemia can be relieved by administration of glucose or glucagon. Normally, but not always, a hypoglycaemic episode is preceded by some early warning symptoms which makes it possible for the patient to take measures against it. Throughout this specification the diabetic patients' attention to these early warning symptoms is in accordance with the common usage referred to as the "awareness".

[4] = healthy subjects, given concomitantly with the insulin
[5] = individual healthy subjects No. 1-11, insulin 0.15 IU/kg, theophyllamine bolus 220 mg per person + infusion 2,5 mg/kg body weight/hour
[6] = mean of eleven healthy subjects, insulin 0.15 IU/kg, theophyllamine bolus 220 mg per person + infusion 2,5 mg/kg body weight/hour
[7] = diabetic patients, given concomitantly with the insulin
[8] = individual diabetic patients No. 1-9, insulin 0.15 IU/kg, theophyllamine bolus 220 mg per person + infusion 2,5 mg/kg body weight/hour
[9] = mean of nine diabetic patients, insulin 0.15 IU/kg, theophyllamine bolus 220 mg per person + infusion 2,5 mg/kg body weight/hour

Cn1c(=O)c2[nH]cnc2n(C)c1=O [Theophyllamine, theophyllamine]
glucose level 1 hour after the administration of insulin compared with insulin alone (placebo) [1, 4]: higher | glucose level 2 hours after the administration of insulin compared with insulin alone (placebo) [1, 4]: higher | nadir level compared with insulin alone (placebo) [1, 4]: higher | Nadir Level (blood glucose) [1, 5]: 1.5 mmol/l (2×) and 1.3 mmol/l (2×) and 1.4 mmol/l and 2.0 mmol/l (2×) and 1.9 mmol/l and 1.6 mmol/l and 1.7 mmol/l and 2.4 mmol/l | blood glucose level 1 hr after insulin [1, 5]: 2.7 mmol/L and 2.4 mmol/L and 2.3 mmol/L and 3.1 mmol/L and 2.8 mmol/L and 2.5 mmol/L and 3.0 mmol/L and 3.8 mmol/L and 2.6 mmol/L and 3.4 mmol/L and 2.0 mmol/L | blood glucose level 2 hr after insulin [1, 5]: 3.9 mmol/l and 2.6 mmol/l and 3.1 mmol/l and 4.3 mmol/l (2×) and 4.1 mmol/l and 3.5 mmol/l (2×) and 4.5 mmol/l and 5.4 mmol/l and 5.1 mmol/l | Basal Level (blood glucose) ([1]; individual healthy subjects No. 1-11, just before injection of insulin 0.15 IU/kg and theophyllamine): 5.2 mmol/l (4×) and 5.0 mmol/l (2×) and 5.9 mmol/l and 5.8 mmol/l (2×) and 5.6 mmol/l and 5.7 mmol/l | Nadir level (blood glucose), MEAN [1, 6]: 1.7 mmol/L | blood glucose level 1 hr after insulin, MEAN [1, 6]: 2.8 mmol/L | blood glucose level 2 hr after insulin, MEAN [1, 6]: 4.0 mmol/L | Basal Level (blood glucose), MEAN ([1]; mean of eleven healthy subjects, just before injection of insulin 0.15 IU/kg and theophyllamine): 5.4 mmol/L | glucose level 1 hour after the administration of insulin compared with insulin alone (placebo) [2, 7]: higher | glucose level 2 hours after the administration of insulin compared with insulin alone (placebo) [2, 7]: higher | nadir level compared with insulin alone (placebo) [2, 7]: higher | Nadir Level (blood glucose) [2, 8]: 1.5 mmol/l (2×) and 4.1 mmol/l and 1.1 mmol/l (2×) and 1.7 mmol/l and 2.6 mmol/l and 1.4 mmol/l and 2.2 mmol/l | blood glucose level 1 hr after insulin [2, 8]: 2.9 mmol/l (2×) and 2.1 mmol/l (3×) and 4.4 mmol/l and 1.9 mmol/l and 2.5 mmol/l (2×) | blood glucose level 2 hr after insulin [2, 8]: 4.8 mmol/l and 3.7 mmol/l (2×) and 6.4 mmol/l and 3.1 mmol/l and 3.0 mmol/l (3×) and 3.8 mmol/l | Basal Level (blood glucose) ([2]; individual diabetic patients No. 1-9, just before injection of insulin 0.15 IU/kg and theophyllamine): 4.8 mmol/l and 4.5 mmol/l (2×) and 5.5 mmol/l and 4.6 mmol/l and 5.6 mmol/l and 4.7 mmol/l and 6.0 mmol/l and 4.9 mmol/l | Nadir level (blood glucose), MEAN [2, 9]: 2.2 mmol/L | blood glucose level 1 hr after insulin, MEAN [2, 9]: 2.6 mmol/L | blood glucose level 2 hr after insulin, MEAN [2, 9]: 3.8 mmol/L | Basal Level (blood glucose), MEAN ([2]; mean of nine diabetic patients, just before injection of insulin 0.15 IU/kg and theophyllamine): 5.0 mmol/L | awareness [3]: improved awareness

Reference: patent EP0532446A1, “Use of xanthines in the treatment or prevention of hypeoglycemia” (NOVO NORDISK A/S, priority 1991, dated 1993)
